Data from patent US20210290648A1, “Potentiation of B-Lactam Antibiotics and B-Lactam/B-Lactamase Inhibitor Combinations Against Multidrug and Extensively Drug-Resistant Pseudomonas Aeruginosa Using Non-Ribosomal Tobramycin-Cyclam Conjugates” (University of Manitoba, priority 2018, published 2021).
Read-outs that look alike come from different tables or passages of the source.

How the values were obtained:
[1] = system: β-lactamase-harboring MDR P. aeruginosa clinical isolates; experiment: Triple combination susceptibility (β-lactam + avibactam + compound 2); assay type: cell-based, Pseudomonas aeruginosa
From the text: The diazabicyclooctane β-lactamase inhibitor, avibactam, is able to inhibit a wide range of serine β-lactamases (class A, C, and D) but not metallo-β-lactamases (class B) (50, 51).^50,51 However, the high concentration of avibactam required to neutralize the effects of β-lactamase enzymes in these phenotypes is indicative of concomitant permeability barriers in the isolates, such as reduced porin uptake. […] The results of this study are shown in (FIG. 6). All isolates were resistant to all three β-lactam antibiotics used for the study. […] As expected, the study with meropenem was slightly different from others.
Antimicrobial Susceptibility Assay. The in vitro antimicrobial activity of all compounds/antibiotics against a panel of bacteria was evaluated by microbroth dilution method in accordance with the Clinical and Laboratory Standards Institute (CLSI) guidelines. Overnight grown bacterial cultures were diluted in saline to achieve a 0.5 McFarland turbidity, followed by 1:50 dilution in Mueller-Hinton broth (MHB) for inoculation to a final concentration of approximately 5×10^5CFU/mL. The antimicrobial agents were 2-fold serially diluted in MHB in a 96-well plate and incubated at 37° C. with equal volumes of inoculum for 18 h. The lowest concentration that prevented the visible growth of bacteria was defined as the MIC for each antimicrobial agent. The broth with or without bacterial cells was used as positive or negative control, respectively.
Checkerboard Assay. Combination studies with different antibiotics were performed in 96-well plates as previously described (22). Briefly, the antibiotic of interest was serially diluted in MHB along the abscissa while the adjuvant (newly synthesized conjugates) was serially diluted in MHB along the ordinate. This creates a 10×7 matrix wherein each well consists of a combination of different antibiotic and adjuvant concentrations. Overnight grown bacterial cultures were diluted in saline to achieve a 0.5 McFarland turbidity, followed by 1:50 dilution in Mueller-Hinton broth (MHB) for inoculation to a final concentration of approximately 5×10^5CFU/mL. Equal volume of this bacterial culture was then added to each well and incubated at 37° C. for 18 h. After incubation, the plates were read on EMax® Plus microplate reader (Molecular Devices, Sunnyvale, Calif., USA) at 590 nm. MIC was recorded as wells with the lowest concentration of drugs with no bacterial growth. The fractional inhibitory concentration (FIC) for each antibiotic was calculated by dividing the MIC of the antibiotic in the presence of adjuvant by the MIC of the antibiotic alone. Similarly, the FIC of adjuvant was calculated by dividing the MIC of the adjuvant in the presence of antibiotic by the MIC of the adjuvant alone. FIC index is the sum of both FICs. FIC indices of <0.5 were deemed synergistic; 0.5-4, no interaction; and >4, antagonistic.

WT P. aeruginosa PAO1 = experiment: Checkerboard combination study / MIC; assay type: cell-based, Pseudomonas aeruginosa; settings: for MIC: Pseudomonas aeruginosa; for FICI in the presence of ≤10 μM of 1: antibiotic + compound 1; for FICI in the presence of ≤10 μM of 1 / MIC of Antibiotics in the presence of ≤10 μM of 1 / FICI in the presence of ≤10 μM of 2 / MIC of Antibiotics in the presence of ≤10 μM of 2 / FICI in the presence of ≤10 μM of 3 / MIC of Antibiotics in the presence of ≤10 μM of 3 / FICI with compounds 1-3: WT PAO1; for MIC of Antibiotics in the presence of ≤10 μM of 1: antibiotic + compound 1 ≤10 μM; for FICI in the presence of ≤10 μM of 2: antibiotic + compound 2; for MIC of Antibiotics in the presence of ≤10 μM of 2: antibiotic + compound 2 ≤10 μM; for FICI in the presence of ≤10 μM of 3: antibiotic + compound 3; for MIC of Antibiotics in the presence of ≤10 μM of 3: antibiotic + compound 3 ≤10 μM; for FICI with compounds 1-3: antibiotic + compounds 1-3 at ≤10 μM (≤16 μg/mL)
[2] = PAO1, 18 h, antibiotic alone, WT PAO1 (Table 2), read-out: MIC alone

Row | Compound | isolates reaching aztreonam susceptibility breakpoint (≤8 μg/ml) ([1]; aztreonam + single adjuvant 8 μM) | isolates reaching ceftazidime susceptibility breakpoint (≤8 μg/ml) ([1]; ceftazidime + single adjuvant 8 μM) | isolates reaching meropenem susceptibility level ([1]; meropenem + single adjuvant 8 μM) | MIC (WT P. aeruginosa PAO1; [2]) | MIC of Antibiotics in the presence of ≤10 μM of 1 (WT P. aeruginosa PAO1) | MIC of Antibiotics in the presence of ≤10 μM of 2 (WT P. aeruginosa PAO1) | MIC of Antibiotics in the presence of ≤10 μM of 3 (WT P. aeruginosa PAO1) | concentration that completely reverses resistance to ceftazidime and aztreonam ([1]; 16-64 μM, not meropenem) | potentiation of ceftazidime ([1]; single adjuvant at 8 μM, five isolates) | FICI in the presence of ≤10 μM of 1 (WT P. aeruginosa PAO1) | FICI in the presence of ≤10 μM of 2 (WT P. aeruginosa PAO1) | FICI in the presence of ≤10 μM of 3 (WT P. aeruginosa PAO1) | FICI with compounds 1-3 (WT P. aeruginosa PAO1) | MIC (WT P. aeruginosa PAO1; PAO1, read-out: MIC alone) | MIC (WT P. aeruginosa PAO1; PAO1, 18 h, read-out: MIC alone)
1 | O=C(N[C@H](CO)[C@H](O)c1ccc([N+](=O)[O-])cc1)C(Cl)Cl [Chloramphenicol] | – | – | – | 32 µg/mL | 8 µg/mL | 4 µg/mL | 8 µg/mL | – | – | 0.25 | 0.13 | 0.25 | – | – | –
2 | CCC[C@@H]1C[C@@H](C(=O)N[C@@H]([C@H]2O[C@H](SC)[C@H](O)[C@@H](O)[C@H]2O)[C@H](C)Cl)N(C)C1 [Clindamycin] | – | – | – | 1020 µg/mL | 512 µg/mL | 512 µg/mL | 64 µg/mL | – | – | 0.50 | 0.51 | 0.07 | – | – | –
3 | C[C@H]1c2cccc(O)c2C(=O)C2=C(O)[C@]3(O)C(=O)C(C(N)=O)=C(O)[C@@H](N(C)C)[C@@H]3[C@@H](O)[C@@H]21 [Doxycycline] | – | – | – | 8 µg/mL | 4 µg/mL | 1 µg/mL | 0.5 µg/mL | – | – | 0.50 | 0.13 | 0.08 | – | – | –
4 | CC[C@H]1OC(=O)[C@H](C)[C@@H](O[C@H]2C[C@@](C)(OC)[C@@H](O)[C@H](C)O2)[C@H](C)[C@@H](O[C@@H]2O[C@H](C)C[C@H](N(C)C)[C@H]2O)[C@](C)(O)C[C@@H](C)C(=O)[C@H](C)[C@@H](O)[C@]1(C)O [Erythromycin] | – | – | – | 512 µg/mL | – | – | – | – | – | 0.50 | 0.50 | 0.25 | – | – | –
5 | C[C@@H]1O[C@@H]1P(=O)(O)O [Fosfomycin] | – | – | – | 16 µg/mL | 8 µg/mL | 8 µg/mL | 16 µg/mL | – | – | 0.51 | 0.50 | 1.02 | – | – | –
6 | O=C1CN(/N=C/c2ccc([N+](=O)[O-])o2)C(=O)N1 [Nitrofurantoin] | – | – | – | 1020 µg/mL | 1024 µg/mL | 1024 µg/mL | 1024 µg/mL | – | – | 1.00 | 1.00 | 1.02 | 1 | – | –
7 | C=C[C@]1(C)C[C@@H](OC(=O)CO)[C@]2(C)[C@H](C)CC[C@]3(CCC(=O)[C@H]32)[C@@H](C)[C@@H]1O [Pleuromutilin] | – | – | – | 512 µg/mL | 512 µg/mL | 512 µg/mL | 128 µg/mL | – | – | 1.00 | 1.00 | 0.25 | – | – | –
8 | CO[C@H]1/C=C/O[C@@]2(C)Oc3c(C)c(O)c4c(O)c(c(/C=N/N5CCN(C)CC5)c(O)c4c3C2=O)NC(=O)/C(C)=C\C=C\[C@H](C)[C@H](O)[C@@H](C)[C@@H](O)[C@@H](C)[C@H](OC(C)=O)[C@@H]1C [Rifampicin] | – | – | – | 16 µg/mL | 2 µg/mL | 2 µg/mL | 4 µg/mL | – | – | 0.13 | 0.13 | 0.25 | 0.13-0.25 | – | –
9 | CN(C)c1cc(NC(=O)CNC(C)(C)C)c(O)c2c1C[C@H]1C[C@H]3[C@H](N(C)C)C(O)=C(C(N)=O)C(=O)[C@@]3(O)C(O)=C1C2=O [Tigecycline] | – | – | – | – | 2 µg/mL | 2 µg/mL | 2 µg/mL | – | – | 0.25 | 0.50 | 0.52 | – | 4 µg/mL | –
10 | COc1cc(Cc2cnc(N)nc2N)cc(OC)c1OC [Trimethoprim] | – | – | – | 64 µg/mL | 32 µg/mL | 32 µg/mL | 32 µg/mL | – | – | 0.50 | 0.50 | 0.50 | – | – | –
11 | CN[C@H](CC(C)C)C(=O)N[C@H]1C(=O)N[C@@H](CC(N)=O)C(=O)N[C@H]2C(=O)N[C@H]3C(=O)N[C@H](C(=O)N[C@H](C(=O)O)c4cc(O)cc(O)c4-c4cc3ccc4O)[C@H](O)c3ccc(c(Cl)c3)Oc3cc2cc(c3O[C@@H]2O[C@H](CO)[C@@H](O)[C@H](O)[C@H]2O[C@H]2C[C@](C)(N)[C@H](O)[C@H](C)O2)Oc2ccc(cc2Cl)[C@H]1O [Vancomycin] | – | – | – | – | 128 µg/mL | 64 µg/mL | 128 µg/mL | – | – | 0.50 | 0.26 | 0.50 | – | – | 256 µg/mL

Now from value to molecule, other results behind:

Row | isolates reaching aztreonam susceptibility breakpoint (≤8 μg/ml) ([1]; aztreonam + single adjuvant 8 μM) | isolates reaching ceftazidime susceptibility breakpoint (≤8 μg/ml) ([1]; ceftazidime + single adjuvant 8 μM) | isolates reaching meropenem susceptibility level ([1]; meropenem + single adjuvant 8 μM) | MIC (WT P. aeruginosa PAO1; [2]) | MIC of Antibiotics in the presence of ≤10 μM of 1 (WT P. aeruginosa PAO1) | MIC of Antibiotics in the presence of ≤10 μM of 2 (WT P. aeruginosa PAO1) | MIC of Antibiotics in the presence of ≤10 μM of 3 (WT P. aeruginosa PAO1) | Compound | concentration that completely reverses resistance to ceftazidime and aztreonam ([1]; 16-64 μM, not meropenem) | potentiation of ceftazidime ([1]; single adjuvant at 8 μM, five isolates) | FICI in the presence of ≤10 μM of 1 (WT P. aeruginosa PAO1) | FICI in the presence of ≤10 μM of 2 (WT P. aeruginosa PAO1) | FICI in the presence of ≤10 μM of 3 (WT P. aeruginosa PAO1) | FICI with compounds 1-3 (WT P. aeruginosa PAO1) | MIC (WT P. aeruginosa PAO1; PAO1, read-out: MIC alone) | MIC (WT P. aeruginosa PAO1; PAO1, 18 h, read-out: MIC alone)
12 | three out of five | four out of five | one of five | – | – | – | – | NC(=O)[C@@H]1CC[C@@H]2CN1C(=O)N2OS(=O)(=O)O [Avibactam] | 4 to 16 µg/mL | 4-16 fold | – | – | – | – | – | –
13 | – | – | – | 1020 µg/mL | 1024 µg/mL | 256 µg/mL | 256 µg/mL | CC(=O)NC[C@H]1CN(c2ccc(N3CCOCC3)c(F)c2)C(=O)O1 [Linezolid] | – | – | 1.00 | 0.26 | 0.25 | – | – | –
14 | – | – | – | 8 µg/mL | 2 µg/mL | 2 µg/mL | 1 µg/mL | CN(C)c1ccc(O)c2c1C[C@H]1C[C@H]3[C@H](N(C)C)C(O)=C(C(N)=O)C(=O)[C@@]3(O)C(O)=C1C2=O [Minocycline] | – | – | 0.25 | 0.25 | 0.17 | – | – | –
15 | – | – | – | 1 µg/mL | 1 µg/mL | 0.5 µg/mL | 1 µg/mL | COc1c(N2C[C@@H]3CCCN[C@@H]3C2)c(F)cc2c(=O)c(C(=O)O)cn(C3CC3)c12 [Moxifloxacin] | – | – | 1.00 | 0.51 | 1.01 | – | – | –
16 | – | – | – | 512 µg/mL | 64 µg/mL | 64 µg/mL | 32 µg/mL | CO[C@@H]1[C@@H](OC(N)=O)[C@@H](O)[C@H](Oc2ccc3c(O)c(NC(=O)c4ccc(O)c(CC=C(C)C)c4)c(=O)oc3c2C)OC1(C)C [Novobiocin] | – | – | 0.13 | 0.13 | 0.08 | 0.08-0.13 | – | –
